Laboratory results reported in ChEMBL document CHEMBL3351682, “NaSH in the construction of thiophene ring fused with N-heterocycles: a rapid and inexpensive synthesis of novel small molecules as potential inducers of apoptosis” (Bioorg Med Chem Lett, 2014).
Active and inactive are the calls of the source. The calls are words filed in the database; no cut-off is given here.

Key:
Danio rerio [1] = species: Danio rerio; assay: Induction of apoptosis in zebrafish embryo at 1 to 30 uM after 24 to 48 hrs by acridine orange staining based fluorescence microscopy; format: functional, organism-based
Danio rerio [2] = species: Danio rerio; assay: Hepatotoxicity in zebrafish embryo at 1 to 30 uM incubated until 7 days post fertilization; format: organism-based; conditions: in vivo, 168 h
Danio rerio [3] = species: Danio rerio; assay: Teratogenicity in zebrafish embryo at 1 to 30 uM incubated until 5 days post fertilization; format: ADME, organism-based; conditions: in vivo, 120 h
Danio rerio [4] = species: Danio rerio; assay: Induction of apoptosis in zebrafish embryo after 24 to 48 hrs by acridine orange staining based fluorescence microscopy; format: functional, organism-based
Danio rerio [5] = species: Danio rerio; assay: Teratogenicity in zebrafish embryo incubated until 5 days post fertilization; format: ADME, organism-based; conditions: in vivo, 120 h
Danio rerio [6] = species: Danio rerio; assay: Induction of apoptosis in zebrafish embryo at 30 uM after 24 to 48 hrs by acridine orange staining based fluorescence microscopy; format: functional, organism-based
[7] = Therapeutic index, ratio of NOAEL to apoptotic EC50 in Zebrafish embryo; format: organism-based, Danio rerio; conditions: in vivo, read-out: TI
Danio rerio [8] = species: Danio rerio; assay: Hepatotoxicity in zebrafish embryo incubated until 7 days post fertilization; format: organism-based; conditions: in vivo, 168 h
Danio rerio [9] = species: Danio rerio; assay: Induction of apoptosis in zebrafish embryo at 1 to 3 uM after 24 to 48 hrs by acridine orange staining based fluorescence microscopy; format: functional, organism-based
Danio rerio [10] = species: Danio rerio; assay: Teratogenicity in zebrafish embryo at 30 uM incubated until 5 days post fertilization; format: ADME, organism-based; conditions: in vivo, 120 h
Danio rerio [11] = species: Danio rerio; assay: Hepatotoxicity in zebrafish embryo at 10 uM incubated until 7 days post fertilization; format: organism-based; conditions: in vivo, 168 h
Danio rerio [12] = species: Danio rerio; assay: Teratogenicity in zebrafish embryo at 10 uM incubated until 5 days post fertilization; format: ADME, organism-based; conditions: in vivo, 120 h
Danio rerio [13] = species: Danio rerio; assay: Hepatotoxicity in zebrafish embryo assessed as induction of mortality at 30 uM incubated until 7 days post fertilization; format: organism-based; conditions: in vivo, 168 h

Row | Structure (SMILES) | Activity (Danio rerio [1]) | Activity (Danio rerio [2]) | Activity (Danio rerio [3]) | EC50 (Danio rerio [4]) | NOAEL (Danio rerio [5]) | Activity (Danio rerio [6]) | selectivity ratio [7] | NOAEL (Danio rerio [8]) | Activity (Danio rerio [9]) | Activity (Danio rerio [10]) | Activity (Danio rerio [11]) | Activity (Danio rerio [12]) | Activity (Danio rerio [13])
1 | CCCc1cc2nc3ccccc3nc2s1 | Dose-dependent effect | Non-toxic | Non-toxic | 4.46 µM | 30 µM | Active | 6.72 | 30 µM |  |  |  |  | 
2 | c1ccc(-c2cc3nc4ccccc4nc3s2)cc1 |  | Non-toxic |  | 8.5 µM | 10 µM | Active | 1.17 | 10 µM | Active | Toxic |  |  | 
3 | CC(C)(C)c1cc2nc3ccccc3nc2s1 | Dose-dependent effect |  |  | 4.89 µM | 3 µM | Active | 0.2 | 1 µM |  | Toxic | Toxic | Non-toxic | Toxic
4 | Fc1cc(F)cc(-c2cc3nccnc3s2)c1 |  | Non-toxic | Non-toxic | 9.82 µM | 30 µM | Active | 3.05 | 30 µM |  |  |  |  | 
5 | Fc1cc(F)cc(-c2cc3nc4ccccc4nc3s2)c1 |  | Non-toxic | Non-toxic | 10.3 µM | 30 µM | Active | 2.9 | 30 µM |  |  |  |  | 
